# Experiments:
# guinea pigs = settings: cited from earlier work
# [1] = test system: hepatic mRNA of ER stress, inflammation and lipid metabolism genes; test: Hepatic mRNA quantification (qPCR, XBP-1 splicing) in treated mice; assay type: in vivo; settings: liver
# From the text: FIGS. 6a and 6b. Liver samples from FIG. 16 were used to isolate total mRNA and to quantify expression of different candidate genes. Statistical analyses were as described in FIGS. 16-17.
# FIGS. 9a and 9b. C57B/6J mice were fed a western diet for 8 weeks and then treated with MTP inhibitor and other indicated compounds for 8 days as described in FIG. 16. Liver samples were used to isolate mRNA and to quantify mRNA levels with different candidate genes. Stars on MTPi group represent comparison with the control group.
# FIG. 16. Age matched wildtype C57/BL6J animals chow fed animals were treated with DMSO (control) or MTP inhibitor (MTPi) for one week. Age matched wildtype C57/BL6J were fed WD for one month and were administered MTPi, Lovastatin, (Lova), Pioglitazone (Pio) or 4-phenylbutyric acid (PBA) every day for one week. All drugs were administered by oral gavage. Animals were sacrificed on day 7 and livers were harvested. mRNA was extracted and subjected to qPCR analysis. * represent comparison DMSO control; # represent comparisons to WD control; @ represent comparisons to WD MTP inhibitor treated animals.
# mRNA quantifications and primers used: Total RNA from tissues and cells were isolated using TriZol™ (Invitrogen). The purity and integrity of RNA were assessed by the A260/A280 ratio and 1% agarose gel electrophoresis, respectively. Only the RNAs with ratios more than 1.7 were used for cDNA synthesis. The first strand cDNA was synthesized using Omniscript RT (Qiagen) kit. Briefly, 2 μg of total RNA, 1 μM random primers (Invitrogen), 0.5 mM dNTP solution, and 0.5 U/μl Omniscript Reverse Transcriptase were incubated at 37° C. for 1 h in 20 μl of RT buffer and the reaction was terminated by incubating at 95° C. for 5 minutes. Each reaction of quantitative RT-PCR was carried out in a volume of 20 μl consisting of 5 μl cDNA sample (1:100 dilution of the first strand cDNA sample) and 15 μl of PCR master mix solution containing 1×PCR reaction buffer, 6 mM MgCl2, 200 nM primer pair, 0.025 U/μl HotStar Gold™ DNA polymerase, 200 μM dNTP solution, and 0.3 μl SYBR Green I solution (gPCR™ Core Kit for SYBR Green I, Eurogentec). The PCR was carried out by incubating the reaction mixture first for 10 minute at 95° C. followed by 40 cycles of 15 sec incubations at 95° C. and 1 min at 60° C. in the ABI 7000 SDS PCR machine. The data were analyzed using ΔΔCT method according to manufacturer's instruction and presented as arbitrary units. The primers used in this study were designed with the PrimerExpress 3.0 software (Applied Biosystems, CA) and are presented as Table 1.
# [2] = test system: C57Bl/6J mice fed either a chow or western diet; test: MTP inhibitor BMS-212122-01 with or without lovastatin, pioglitazone or PBA in chow or western diet fed C57Bl/6J mice; assay type: in vivo; settings: WD one month
# Description: FIG. 13. Age matched wildtype C57/Bl6J animals chow fed animals were treated with DMSO (control) or MTP inhibitor (MTPi) for one week. […] All drugs were administered by oral gavage. Animals were sacrificed on day 7 and plasma and livers were harvested and analyzed. * represent comparison to DMSO control; # represent comparisons to WD control; @ represent comparisons to WD MTP inhibitor treatment.
# FIG. 18. Age matched wildtype C57/BL6J were fed WD for one month and were administered MTPi, or 4-phenylbutyric acid (PBA) everyday for one week. All drugs were administered by oral gavage. Animals were sacrificed on day 7 and livers were harvested. * represent comparison DMSO control; # represent comparisons to HF MTP inhibitor treated animals.
# (§1) C57BL/6J Black 6 mice (stock number 000664) were obtained from Jackson Laboratory and used for chow fed and western diet fed experiments. MTP inhibitor (BMS […]) (1 mg/kg/day), Lovastatin, Pioglitazone (Toronto Research Chemicals P471000) (25 mg/kg/day) and 4-phenylbutyric acid (Calbiochem 820986) (1 g/kg/day) were administered by oral gavage. Chow fed animals were treated for one week with either DMSO or MTP inhibitor. Western diet fed animals were fed DMSO, MTP inhibitor, Pioglitazone, MTP inhibitor+Pioglitazone, Lovastatin, MTP inhibitor+Lovastatin, 4-phenylbutyric acid, and MTP inhibitor+4-phenylbutyric acid. Chow fed animals were also injected with either PBS or Tunicamycin and animals were sacrificed at 4, 8, 12 and 24 hours.
# All animals were kept in 07:00-19:00 h lighting schedule. […] Food was withdrawn 16 h before the sacrifice of the mice. On the day of the experiment, mice were anesthetized and blood was collected from the heart. Liver was collected, washed in ice-cold PBS, cut into small pieces and used for lipid extraction, histological staining, to measure different protein activities/quantities and for mRNA analysis. Lipids were extracted from the tissue homogenates following the Bligh and Dyer method. Triglyceride (Infinity TM Triglyceride, TR22421) and total cholesterol (Infinity TM Cholesterol, TR13421) levels in the tissues were determined using commercial kits (Thermo Scientific). Free cholesterol and free fatty acid levels were measured using kits from Wako Chemicals (Germany). Esterified cholesterol was calculated by subtracting the free cholesterol from the total cholesterol.
# We next studied the effects of chemical inhibition of MTP in C57Bl/6J mice fed either a chow or western diet (WD) for 5 weeks. Chow fed animals were orally gavaged with either DMSO or MTP inhibitor BMS-212122-01 (MTPi; 1 mg/kg/day) for one week. WD fed animals were treated with DMSO, MTP inhibitor with or without lovastatin (50 mg/kg/day) or pioglitazone (25 mg/kg/day) daily by oral gavage for one week.
# [3] = in vivo; cited from earlier work
# MTP [4] = target: MTP (Homo sapiens, UniProt P55157); settings: cited from earlier work
# MTP [5] = target: T1, MTP (Mus musculus, UniProt O08601); test: Determination of MTP activity in tissues (liver homogenates of treated mice); assay type: in vivo; settings: chow fed C57/BL6J, IP tunicamycin, 4-24 hours
# T1 construct: small pieces (0.1 g) of liver and ˜1-cm segments of proximal small intestine were homogenized; from tissue; host or cells: mouse liver (C57BL/6J; Reversa mice in some experiments); supernatant of ultracentrifuged homogenate
# T1 sequence (O08601 22-894): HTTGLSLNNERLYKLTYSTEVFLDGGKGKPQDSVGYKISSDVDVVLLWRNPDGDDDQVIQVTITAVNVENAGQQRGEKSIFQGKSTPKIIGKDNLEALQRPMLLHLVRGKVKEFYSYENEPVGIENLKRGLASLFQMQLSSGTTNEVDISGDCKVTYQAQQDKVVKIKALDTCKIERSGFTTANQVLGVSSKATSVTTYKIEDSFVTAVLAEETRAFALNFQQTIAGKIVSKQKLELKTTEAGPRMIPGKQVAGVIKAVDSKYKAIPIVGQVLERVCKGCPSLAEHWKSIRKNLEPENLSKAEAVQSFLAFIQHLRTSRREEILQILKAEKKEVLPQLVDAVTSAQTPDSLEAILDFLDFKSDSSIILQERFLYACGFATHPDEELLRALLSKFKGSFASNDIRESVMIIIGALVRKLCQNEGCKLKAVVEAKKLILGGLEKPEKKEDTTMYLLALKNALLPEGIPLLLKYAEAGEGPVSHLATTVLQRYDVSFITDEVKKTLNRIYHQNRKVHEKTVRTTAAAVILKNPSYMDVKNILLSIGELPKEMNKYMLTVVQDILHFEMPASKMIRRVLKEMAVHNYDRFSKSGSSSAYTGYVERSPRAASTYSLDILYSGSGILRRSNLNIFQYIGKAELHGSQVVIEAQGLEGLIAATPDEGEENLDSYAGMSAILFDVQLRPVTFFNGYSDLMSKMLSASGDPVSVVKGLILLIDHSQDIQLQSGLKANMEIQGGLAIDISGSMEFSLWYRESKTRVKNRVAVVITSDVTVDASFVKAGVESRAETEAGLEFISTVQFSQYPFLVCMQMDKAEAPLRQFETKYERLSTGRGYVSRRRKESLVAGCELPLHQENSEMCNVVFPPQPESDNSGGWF
# T1 sequence (P09103 21-509 partner limits assumed): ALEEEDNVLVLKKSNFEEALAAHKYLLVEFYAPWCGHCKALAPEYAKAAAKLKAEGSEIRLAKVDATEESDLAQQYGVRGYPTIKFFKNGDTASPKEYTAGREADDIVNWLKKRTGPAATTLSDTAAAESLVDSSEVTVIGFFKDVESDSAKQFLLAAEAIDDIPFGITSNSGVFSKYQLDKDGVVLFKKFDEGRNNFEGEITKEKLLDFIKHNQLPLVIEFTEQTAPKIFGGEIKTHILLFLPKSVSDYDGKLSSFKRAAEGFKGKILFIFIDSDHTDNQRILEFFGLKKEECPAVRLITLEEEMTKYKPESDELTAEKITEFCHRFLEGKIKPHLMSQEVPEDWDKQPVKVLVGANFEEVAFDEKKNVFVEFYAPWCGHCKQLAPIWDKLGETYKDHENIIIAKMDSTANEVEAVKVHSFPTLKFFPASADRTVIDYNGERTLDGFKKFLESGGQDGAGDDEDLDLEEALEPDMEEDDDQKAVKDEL
# Description: After extensive washes with ice-cold PBS, small pieces (0.1 g) of liver and ˜1-cm segments of proximal small intestine were homogenized with 1 ml of ice-cold 1 mM Tris-HCl, pH 7.6, 1 mM EGTA, and 1 mM MgCl2 buffer in a glass homogenizer. The homogenates were centrifuged (SW55 Ti rotor, 50,000 rpm, 10° C., 1 h), and supernatants were used for MTP assay as described before (41; 42) using a kit (Chylos, Inc.).
# C57Bl/6J mice = test: ER stress induction by tunicamycin in mice: plasma AST/ALT and lipids; assay type: in vivo
# Description: FIG. 10. Effect of tunicamycin on plasma ALT/AST levels. W iid type mice were injected intraperitoneally with 1 mg/kg tunicamycin. Plasma were collected after 48 h and used to measure enzyme activities.
# FIG. 17. Age matched wildtype C57/BL6J animals chow fed animals were injected via IP with either PBS or Tunicamycin. Animals were sacrificed at 4, 8, 12 and 24 hours. Plasma and livers were collected and mRNA extracted from liver samples.
# To determine whether ER stress itself would increase plasma AST/ALT, C57Bl/6J mice were injected with tunicamycin (1 mg/kg) as described before. Plasma AST/ALT levels were measured after 36 h (FIG. 10). […] We will be measuring cellular lipid to determine whether tunicamycin affects hepatic lipid levels as well as mRNA and protein levels of different candidate genes involved in ER stress pathway.
# as §1
# [6] = chow fed C57/BL6J, IP, 4-24 hours
# MTP (Homo sapiens, UniProt P55157), sequence (P55157 19-894, species assumed): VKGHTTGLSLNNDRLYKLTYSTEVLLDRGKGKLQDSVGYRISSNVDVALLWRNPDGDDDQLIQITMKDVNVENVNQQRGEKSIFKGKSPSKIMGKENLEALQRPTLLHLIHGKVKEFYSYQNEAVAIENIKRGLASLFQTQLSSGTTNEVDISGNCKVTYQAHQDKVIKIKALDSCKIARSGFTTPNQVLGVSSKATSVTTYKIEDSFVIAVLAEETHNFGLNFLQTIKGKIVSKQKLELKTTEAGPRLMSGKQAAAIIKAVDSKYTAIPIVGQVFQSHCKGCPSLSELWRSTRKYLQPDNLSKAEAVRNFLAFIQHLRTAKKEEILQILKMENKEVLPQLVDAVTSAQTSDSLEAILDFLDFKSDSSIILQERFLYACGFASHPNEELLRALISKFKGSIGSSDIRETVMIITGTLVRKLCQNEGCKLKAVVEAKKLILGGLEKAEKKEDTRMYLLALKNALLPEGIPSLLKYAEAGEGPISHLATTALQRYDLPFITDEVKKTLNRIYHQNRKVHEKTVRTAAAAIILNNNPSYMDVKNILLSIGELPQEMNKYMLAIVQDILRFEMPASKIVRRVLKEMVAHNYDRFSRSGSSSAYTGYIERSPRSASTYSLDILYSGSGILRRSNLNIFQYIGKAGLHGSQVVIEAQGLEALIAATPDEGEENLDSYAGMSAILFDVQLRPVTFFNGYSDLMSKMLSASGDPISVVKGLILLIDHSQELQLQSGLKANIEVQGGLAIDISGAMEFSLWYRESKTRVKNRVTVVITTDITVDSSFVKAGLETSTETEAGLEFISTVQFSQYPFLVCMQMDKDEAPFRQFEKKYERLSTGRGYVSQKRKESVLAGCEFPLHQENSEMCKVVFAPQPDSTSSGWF
# MTP (Homo sapiens, UniProt P55157), sequence (P07237 18-508 partner, species assumed): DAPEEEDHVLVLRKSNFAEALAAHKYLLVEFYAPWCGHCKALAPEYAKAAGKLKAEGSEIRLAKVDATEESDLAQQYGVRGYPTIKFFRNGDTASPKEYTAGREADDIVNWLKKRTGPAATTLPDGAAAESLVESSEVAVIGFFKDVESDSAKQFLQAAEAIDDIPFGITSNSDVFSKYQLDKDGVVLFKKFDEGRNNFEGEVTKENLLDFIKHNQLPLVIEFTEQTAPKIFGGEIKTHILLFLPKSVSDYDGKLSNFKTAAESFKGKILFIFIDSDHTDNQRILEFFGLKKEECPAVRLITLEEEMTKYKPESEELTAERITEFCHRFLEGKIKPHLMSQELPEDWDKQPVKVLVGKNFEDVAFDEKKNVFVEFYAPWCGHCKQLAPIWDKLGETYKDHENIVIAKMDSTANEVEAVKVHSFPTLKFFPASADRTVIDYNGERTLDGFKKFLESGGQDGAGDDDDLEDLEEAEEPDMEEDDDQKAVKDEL
compound,measurement,setting,value
CCOC(=O)C(COC(=O)Cc1ccc(NC(=O)c2ccccc2-c2ccc(C(F)(F)F)cc2)c(C(=O)N(C)C)c1)(C(=O)OCC)c1ccccc1 [JTT-130],hepatic triglyceride,guinea pigs,without increasing
same,plasma triglyceride and LDL cholesterol,guinea pigs,lower
"O=C(O)CCCc1ccccc1 [PBA, 4-phenylbutyric acid]",mRNA levels of ER stress markers vs MTPi treated animals,[1]; PBA with MTPi,significantly lower
same,hepatic triglycerides and free cholesterol (hepatic lipids),[2]; MTPi ± PBA one week,did not reduce
same,"MTP activity, hepatic and plasma lipids","[2]; PBA 1 g/kg/day alone or co-administered with MTP inhibitor, one week",no effect
same,rises in plasma AST/ALT after MTP inhibition,"[2]; PBA 1 g/kg/day with MTP inhibitor, one week",spared increases
COc1cccc(C(=O)Nc2ccc3c(c2)CCN(C(=O)Oc2ccccc2)C3)c1-c1ccc(C(F)(F)F)cc1 [SLx-4090],plasma lipids,[3],lower
O=C1c2c(O)cc(O)cc2OC(c2ccc(O)c(O)c2)C1O (stereo not shown) [Taxifolin],cellular lipids,MTP [4],without increasing
same,triglyceride synthesis and MTP activity,MTP [4],inhibits
tunicamycin,hepatic MTP activity,MTP [5],no effect
same,XBP-1 splicing assay,[1]; tunicamycin IP,revealed the spliced form of XBP-1
same,"mRNA expression of ER stress markers Bip, Ire1α and CHOP",[1]; tunicamycin IP time course,elevations
same,Plasma AST/ALT levels,"C57Bl/6J mice; 1 mg/kg injected, measured after 36 h",significantly enhanced
same,plasma AST/ALT vs PBS injected animals,C57Bl/6J mice; 24 hours after injection,still significantly elevated
same,increase of plasma AST/ALT,C57Bl/6J mice; acute induction of ER stress,2.5 fold
same,time of peak plasma AST/ALT levels after injection,"C57Bl/6J mice; chow fed C57/BL6J, IP",8 h
same,hepatic lipids,C57Bl/6J mice; [6],increased
same,plasma cholesterol and triglycerides,C57Bl/6J mice; [6],lowered
same,plasma transaminases,"C57Bl/6J mice; chow fed C57/BL6J, IP, vs PBS",higher
